Data on 3 compounds can be found in US10272045B2 (priority 2015, dated 2019).

The conditions of series [1]: human, in vivo, cited from earlier work.
For series [2] the following is noted: dog, in vivo.

Take arsenic acid [Asv]: the level in plasma entry in series [1] is “relatively low levels”.

For `O=[As]O[As]=O` (stereo not drawn) [SV100], in series [2], the oral absorption result is recorded as “very limited absorption” and the “oral bioavailability (F^b %)” value is reported as less than 10%.

Turning to arsenious acid [AsIII], the “time to peak plasma concentration (end of infusion)” value in series [1] (0.15 mg/kg) is 2 h. In series [1], the “accumulation, Day 25 versus Day 1 of Cycle 1” value is given as approximately 2 fold; the mean elimination half-life was 10 to 14 h; the renal clearance is listed as 9 L/h; the total clearance is 49 L/h. The “volume of distribution (Vss)” value in series [1] was 562 L.
